Test results from US20090180958A1, “Diagnostic and therapeutic agents” (Karyon-CTT Ltd., priority 2005, published 2009).

Tests used:
human lung tumor tissue = details: enriched peptide sequences collected from ex vivo panning rounds four to six
From the text: Phage display libraries. Standard procedures according to Smith and Scott (1993) were used. Phage display libraries used for screening of clinical samples were cloned in fUSE5 vectors and were of the structure X7 and X10, thus they were linear containing seven or ten random amino acids. The libraries were used separately or as a mixture. The E. coli strain K91kan was used as host for phage amplification.
Subtractional panning. Bio-panning was started with depletion of phage clones binding to normal lung. Normal lung tissue taken from surgical lung resection, removed during dissection of tumor, was placed in ice cold DMEM (Dulbecco's medium) containing protease inhibitors (PI); 10 mM PMSF ([…]), Aprotinin (10 mg/ml) Leupeptin (10 mg/ml). Tissue samples were minced with a razor blade in a small cell culture plate in 1 ml of DMEM-PI. The samples were transferred to an eppendorf tube and washed with 1 ml DMEM-PI.
Samples were centrifuged at 4000 rpm for 5 min and were then incubated with 10^10 transforming units (TU) of phage (from one or more peptide libraries) in 1 ml DMEM-PI at 25° C. for 45 min. After this the samples were washed three times with DMEM-PI containing 1% BSA (bovine serum albumin).
Phage display on clinical tumor samples. Tissue samples were surgically removed from primary tumors of non-small cell lung cancer patients and placed in ice DMEM-PI. Part of sample was taken for pathological examination. The type and nature of the tumor samples were first verified as being NSCLC. After that, specification of subtype of NSCLC and its stage was done by pathologists.
Tissue samples were minced with a razor blade in a small cell culture plate in 1 ml of DMEM containing protease inhibitors. The samples were transferred to an eppendorf tube and washed with 1 ml DMEM-PI.
Samples were centrifuged at 4000 rpm for 5 min and were then incubated with 10^10 TU of phage (from one or more peptide libraries) in iml DMEM-PI at 25° C. for 15 min. After this the samples were washed three times with DMEM-PI containing 1% BSA (bovine serum albumin).
1 ml K91kan bacteria, OD600: 1-1.5, in LB containing 100 μg/ml kanamycin (kan) were infected with the washed pellet containing selectively attached phage particles at 25° C. for 25 min. After infection volume was increased to 2 ml with LB containing 100 μg/ml kan.
Then infected bacteria were plated on LB agar plates containing 40 μg/ml tetracycline (tet) as follows: Two parallel plates of three dilutions (1:50, 1:500, 1:5000) and the rest of the above K91kan culture in 200 μl aliquots. The plates were incubated overnight at +37° C.
The following day 24-48 colonies were picked from the LBtet plates into 96-well micro-plates for sequencing of the phage DNA. Alternatively the clones were stored for later analysis at −20° C.
Monitoring of enrichment of peptides.

[1] = system: NIH3T3, mouse fibroblast cell line; details: wells coated at 30 μg/ml; 75000 cells, 30 minutes at 37° C.; control cell line NIH3T3
Description: (§1) Preparation of plates for assays. Wells of Reacti-Bind Maleimide activated clear strip plate (Pierce, Prod#. 15150) were coated with targeting agents of this invention at a concentration of 30 μg/ml. The incubation was carried out of overnight at 20° C. The binding buffer containing unbound peptide was removed from the wells.
(§2) The wells were blocked with blocking buffer (1.0% BSA, 0.05% Tween20 in phosphate buffer saline (PBS) pH 7.0. PBS was prepared as follows: […] of NaCl, 1 g of KCl, 7 g of Na2HPO4×2H2O and 1 g of KH2PO4 were dissolved to 1000 ml of deionized H2O). Blank wells as controls were prepared by treating empty wells with blocking buffer. The plates were incubated 1 hour 30 min at 20° C.
(§3) After incubation the plate was washed three times with PBS. Cell binding assays. 75000 cells in volume of 150 μl of medium were added into coated wells and were incubated for 30 minutes at 37° C. After cell binding, the wells were washed with PBS for 30 minutes. Detection of targeting agent bound cells were based on the MTT assay (described in detail in Example 23, Cytotoxicity). 10 μl of MTT reagent and 90 μl of medium were added to the wells. The plate was incubated for three hours at +37° C. After the incubation, 100 μl of lysis buffer was added to the wells and let to incubated o/n 37° C. On following day the absorbance of plate was measured at 560 nm with ELISA-reader (ThermoLabsystems, multiskan EX).
(§4) Cell lines NCI-H23, NCI-H520, A549, HeLa and NIH3T3 (described in Example 18) and targeting agents HP199, HP201 and HP205 (described in Examples 5, 6, 17) were used in the cell binding.
(§5) The results are shown as measured absorbance at 560 nm.

NSCLC cell line A549 = details: wells coated at 30 μg/ml, 75000 cells, 30 minutes at 37° C.
Description: as §1, §2, §3, §4, §5

NSCLC cell line NCI-H23 = details: wells coated at 30 μg/ml, 75000 cells, 30 minutes at 37° C.
Description: as §1, §2, §3, §4, §5

NSCLC cell line NCI-H520 = details: wells coated at 30 μg/ml, 75000 cells, 30 minutes at 37° C.
Description: as §1, §2, §3, §4, §5

[2] = system: PASMC, human primary pulmonary artery smooth muscle cell line; details: wells coated at 30 μg/ml; 75000 cells, 30 minutes at 37° C.; control cell line PASMC
Description: as §1, §2, §3, §4, §5

[3] = system: A549, NCI-H23, NCI-H520, NCI-H460, C8161/M1, HeLa, NIH3T3, E10V, SVEC4-10 cell lines; assay: Cytotoxicity assay (MTT); format: cell-based; details: 7.5 μg/ml, after 1 h treatment; positive control
Description: In this assay cell lines were exposed to two different concentrations (50 μg/and 500 μg/ml) of IS257 targeting unit (described in Example 3) for two to three days to test the toxicity of the peptides. The measurement of cell viability was done with MTT (Thiazolyl blue, Sigma M-5655 ) tetrazolium salt. MTT is cleaved to water-insoluble formazan dye by the “succinate-tetrazolium reductase” system which is active only in viable cells. After formazan was solubilized by 10% SDS-0.01 M HCl, it was quantified in an ELISA spectrometer (ThermoLabsystems Multiscan EX) at 560 nm. CuSAO2 [trans-bis(salicylaldoximato) copper(II)] (Elo HO, Lumme PO., 1985) 7.5 μg/ml was used as a positive control for 100% toxicity.
Procedure. Cells were trypsinized from the cell culture dish (ø9 cm) with 1 ml of TE for 1-5 minutes and moved to a 50 ml Falcon tube. […]
Then 40 μl of IS257 targeting unit in appropriate medium were added to the wells in two concentrations, so that final concentrations were 50 μg/ml and 500 μg/ml, and the volume of the wells was raised back to 100 μl. […] The next day the cell morphology was analyzed with a microscope. […]
The next day, the MTT assay described above was performed. The viable count (v.c.) was calculated as:
Average toxicated cell absorbance−Average DMEM absorbance=Viable count Average living cell absorbance−Average DMEM absorbance […]

HeLa = details: 5 pM, 30 min at 37° C.; control cell line HeLa
Description: (§6) 5000 cells, A549, NCI-H23, NCI-H520, NCI-H460, and control cells PASMC and HeLa (described in Example 18), are grown in multi-well plates, according to the conditions described in Example 18.
(§7) After 30 min of incubation cells are washed 5 times with PBS. PBS is removed and cells are lysed by shaking in Inducer Solution (Perkin-Elmer Ltd) for 15 min. After this, fluorescence is measured by time resolved fluorescence using a Victor III fluorometer (Perkin-Elmer Ltd).

PASMC = details: 5 pM, 30 min at 37° C.; control cell line PASMC
Description: as §6, §7

A549 cells = assay: Fluorescent targeting agent staining of fixed cells; format: cell-based, human; details: 50 μg/ml in PBS, pH 7.4; methanol-fixed A549 cells
Description: (§8) A549 cells and HeLa cells (described in Example 18) were grown on glass slides, washed with PBS and then fixed with methanol. The fluorescent targeting agent F5M-A49 (described in Example 10) was used to stain these cells as follows: Cells were first blocked with blocking buffer (1.0% BSA, 0.05% Tween20 in PBS, pH 7.4) for one hour at 20° C. The cells on the glass slides were incubated with 20 μl of F5M-A49 targeting agent (50 μg/ml in PBS, pH 7.4). As control, binding of F5M-A49 was competed with 20 μl of IS257 targeting unit (free peptide described in Example 3), 500 μg/ml in PBS, pH 7.4) prior to addition of the targeting agent. As negative controls, cells not incubated with any targeting agent were used. After the staining the cells were mounted on object glasses with mountex (Histolab Products Ltd). After this cells were viewed under a fluorescent microscope (Carl Zeiss Microscopy, Jena, Germany).

HeLa cells = details: 50 μg/ml in PBS, pH 7.4; methanol-fixed HeLa cells
Description: as §8

Compound: ARAPGVMPTT
- Frequency (human lung tumor tissue): 2

Compound: Ac-ARRPKLD-GAAG-PEG-G3-EAT [HP201]
- binding of cells to immobilized targeting agent (absorbance at 560 nm) [1]: do not
- binding of cells to immobilized targeting agent (absorbance at 560 nm) (NSCLC cell line A549): bind selectively
- binding of cells to immobilized targeting agent (absorbance at 560 nm) (NSCLC cell line NCI-H23): bind selectively
- binding of cells to immobilized targeting agent (absorbance at 560 nm) (NSCLC cell line NCI-H520): bind selectively
- binding of cells to immobilized targeting agent (absorbance at 560 nm) [2]: do not

Compound: Ala-Asp-Gly-Ala-Ala-Arg-Arg-Pro-Lys-Leu-Asp-Gly-Ala-Ala-Gly-NH—CH2CH2—O—CH2CH2—O—CH2CH2—O—CH2—C(O)-Gly-Gly-Gly-NHCH2CH2SH [HP199]
- binding of cells to immobilized targeting agent (absorbance at 560 nm) [1]: do not
- binding of cells to immobilized targeting agent (absorbance at 560 nm) (NSCLC cell line A549): bind selectively
- binding of cells to immobilized targeting agent (absorbance at 560 nm) (NSCLC cell line NCI-H23): bind selectively
- binding of cells to immobilized targeting agent (absorbance at 560 nm) (NSCLC cell line NCI-H520): bind selectively
- binding of cells to immobilized targeting agent (absorbance at 560 nm) [2]: do not

Compound: H-Ala-Asp-Gly-Ala-asp-Pro-Leu-Lys-Arg-Ala-Arg-Gly-Ala-Ala-Gly-NH-CH2CH2—O—CH2CH2—O—CH2CH2—O—CH2—C(O)-Gly3-NHCH2CH2SH [HP205, reference compound]
- binding of cells to immobilized targeting agent (absorbance at 560 nm) (NSCLC cell line A549): do not bind
- binding of cells to immobilized targeting agent (absorbance at 560 nm) (NSCLC cell line NCI-H23): do not bind
- binding of cells to immobilized targeting agent (absorbance at 560 nm) (NSCLC cell line NCI-H520): do not bind

Compound: ARPPKGVNWT
- Frequency (human lung tumor tissue): 3

Compound: ARRPKLD [Ala-Arg-Arg-Pro-Lys-Leu-Asp]
- Frequency (human lung tumor tissue): 22

Compound: SRLPSAGTFQ
- Frequency (human lung tumor tissue): 2

Compound: [Cu+2].[O-]c1ccccc1C=NO.[O-]c1ccccc1C=NO [CuSAO2, trans-bis(salicylaldoximato) copper(II), reference compound]
- cell killing [3]: 100%

Compound: SRAPNSVQHD
- Frequency (human lung tumor tissue): 2

Compound: ARLPQVELSA
- Frequency (human lung tumor tissue): 3

Compound: SRNPGLLTVR
- Frequency (human lung tumor tissue): 2

Compound: CH3C(O)-Ala-Arg-Arg-Pro-Lys-Leu-Asp-Gly-Ala-NHCH2CH2S-p-CH2CONH-benzyl-DTPA europium chelate [A48-Eu]
- binding of targeting agent to cells (HeLa): no binding
- binding of targeting agent to cells (PASMC): no binding

Compound: CH3C(O)-Ala-Arg-Arg-Pro-Lys-Leu-Asp-Gly-Ala-Ala-Gly-NH—(CH2)3—(O—CH2CH2)3—CH2—NH—C(O)CH2CH2—C(O)—NHCH2CH2S—C2H3(COOH)—C(O)—NH—(C20H11O5) [F5M-A49]
- staining of cells (fluorescent microscope) (A549 cells): strong staining
- staining of cells (fluorescent microscope) (HeLa cells): no staining

Compound: SRAPVAP
- Frequency (human lung tumor tissue): 2

Compound: ARMPPRS
- Frequency (human lung tumor tissue): 2
